# Source: patent US10517954B2, “Pegylated carfilzomib compounds” (AMGEN INC., priority 2016, dated 2019)
# Tests used:
# [1] = test system: cellular proteasome chymotrypsin-like (CT-L) in MOLT-4 human acute lymphoblastic leukemia T lymphoblasts; assay: Proteosome inhibition in cells (AMC-LLVY fluorescent assay, FIGS. 9-14); format: cell-based; conditions: MOLT-4 cells, 1 hour incubation; read-out: cellular proteasome chymotrypsin-like (CT-L) IC50 inhibitory potency
# Method: MOLT-4 human acute lymphoblastic leukemia T lymphoblasts were grown for at least 6 passages in growth media (RPMI-1640 basal media supplemented with 10% FBS and 1×L-glutamine). […] Serial dilutions were performed in DMSO to produce concentrations covering 7 logs, and then each serial dilution was further diluted 40× in growth media. Dilutions were then added in equal volume to wells containing cells, further diluting compound concentrations by two-fold. Cells were incubated at 37° C. (5% CO2) for 1 hour, then spun at 1500 rpm for 5 mins at RT. Media was removed and the cells were washed with PBS 3 times. After the last wash, supernatant was removed and the cell pellets were frozen on dry ice. Cell pellets were thawed and then lysed by resuspending in 50 uL lysis buffer on ice (20 mM Tris-HCl, 5 mM EDTA, pH 8). The preparation was centrifuged at 1500 rpm for 5 mins and then utilized directly for AMC-LLVY fluorescent assay.
# [2] = in humans; cited from earlier work
# [3] = test system: Proteasome chymotrypsin-like (CT-L) activity; assay: Proteasome CT-L activity in blood and tissues after i.v. dosing (FIG. 3); format: in vivo, mice (Balb/c); conditions: i.v. bolus; blood, adrenal gland, heart and liver, in mice
# Method: Carfilzomib standard was formulated in an aqueous solution of 10% (w/v)sulfobutylether-β-cyclodextrin and 10 mmol/L sodium citrate (pH 3.5) for administration (5 mg/kg). At selected time points after i.v. drug administration, tissue samples (adrenal, heart, liver and bone marrow) were collected. Whole blood was collected by cardiac puncture into tubes containing sodium heparin.
# Approximately 0.4 mL of whole blood is collected using either EDTA microcentrifuged tubes. Samples are immediately placed on ice and spun at maximum speed for 2 minutes in a microcentrifuge at room temperature (RT). Cell pellets are stored on wet ice. Whole blood cell pellets are resuspended in 1 ml of phosphate buffered saline (PBS) and centrifuged at max speed at 4° C. Supernatants are removed and the pellets are washed a second time with PBS. Samples are resuspended in 2 volumes of lysis buffer (20 mM Tris, pH 8.0, 5 mM EDTA) then frozen and stored at −80° C. until analysis. […]
# All samples were thawed on ice. […] These samples were then ready for assaying, or they may be frozen at −80° C. […] These samples were then ready for assaying, or they may be frozen at −80° C. […] The protein concentration for each sample was measured by Bradford assay. Proteasome chymotrypsin-like (CT-L) activity was quantitated by monitoring the release of free AMC from the fluorogenic peptide Suc-Leu-Leu-Val-Tyr-AMC (BostonBiochem).
# [4] = mouse, in vivo, iv, 5 mg/kg
# Method: The PEG carfilzomib compounds were administered to mice (Balb/c, male, n=9 per dose group) as an intravenous (i.v.) bolus at 5 mg/kg (equivalent to carfilzomib, dose volume 1 mL/kg). Blood samples from each mouse were collected at the indicated time points (0.5, 1, 2, 4, 6, 12, 16 and 24 hours post-dose) and 25 μL of the plasma samples were extracted by protein precipitation with 125 μL of acetonitrile containing D10-CFZ as an internal standard and then centrifuged. Carfilzomib concentrations were measured in the supernatant by LC-MS/MS using multiple reaction monitoring in the positive electrospray ionization mode. The lower limit of quantitation of the assay was 0.500 ng/mL.
# [5] = PEG-carfilzomib mouse pK (FIG. 2); parameters: species or system mice (Balb/c); conditions: in vivo, iv
# Method: Mean plasma concentration (μM) following intravenous administration of PEG-carfilzomib conjugate to female Balb/c mice (n=3). Dosage indicated is mg/kg of PEG-carfilzomib conjugate. […] Blood samples were collected at the indicated time points and plasma carfilzomib concentrations were measured in duplicate by LC/MS-MS. […] This standard carfilzomib represents the currently approved formulation for carfilzomib for treatment of multiple myeloma.
# [6] = test system: HT-29 Human Colorectal Adenocarcinoma Xenograph Model; assay: Efficacy study in HT-29 xenograph model (FIG. 5, FIG. 6, Table 6); format: in vivo, SCID Beige Mice; conditions: for % Change compared to Vehicle: Day 40; for Day 0 Tumor Vol: baseline; for # of animals at day 40: n = 10 at start
# From the text: (§1) Female Beige Severe Combined Immune Deficiency (SCID) mice (60 plus spares) were purchased from Harlan Laboratories (Livermore, Calif.) as 6- to 7-week-old mice. Following arrival, animals were weighed using an electronic balance (Ohaus SCOUT® PRO, Parsippany, N.J.), given a clinical examination to ensure that the animals were in good condition, and housed 5 per cage (prior to dosing). The animals were maintained in a HEPA-filtered environment in a Micro-VENT full-ventilation rodent housing system (Allentown Caging Equipment Co., Allentown, N.J.) providing at least 10 room air changes per hour Animal room controls were set to maintain temperature and relative humidity at 20° C.±1° C. and 50%±20%, respectively. Housing rooms were on a 12:12 light/dark cycle. Cages were autoclaved, and animals were bedded on SaniChip irradiated bedding 7990.BG (Harlan Teklad; Hayward, Calif.). Water was autoclaved and supplied ad libitum to each cage via water bottles. Irradiated 2018 Teklad Global 16% Protein Rodent Diet ((Harlan Teklad) supplied ad libitum to each cage.
# Example 13 was prepared as generally described above. The carfilzomib comparator compound was prepared as CFZ-captisol (at 1 mg/mL). A powder sample of example 13 was diluted to 30 mg/ml (Group 3) or 50 mg/ml (Group 3 beginning fourth dose) or 40 mg/ml (Group 4) in 10% ETOH/saline. Vehicle and CFZ-captisol were stored at 4° C. throughout the study. During the study, example 13 was inspected regularly for potential changes in the quality of the suspension; none were observed
# NCI-HT29 (HT-29; ATCC® HTB-38™), a human colorectal adenocarcinoma cancer cell (CA) line, was purchased from ATCC (Manassas, Va.). Following receipt at the MGI, cells were grown in-house for 7 passages in RPMI 1640 and 10% fetal bovine serum, then used to generate frozen stocks. The cells were recovered from the frozen stocks and cultured as above. Following growth, the cells were spun down and resuspended at a concentration of 5E07 cells/mL in serum-free medium without additives, then combined 1:1 with Matrigel™ (Trevigen, Gaithersburg, Md.). At the time of implant, cells corresponded to MGI Passage 7 (MGP7).
# At approximately 3 weeks prior to the projected staging day, mice were implanted by subcutaneous (SC) injection into the lower left abdominal flank with 200 μL (5.0E06 cells) per mouse of the freshly prepared HT29:Matrigel mixture. All procedures were carried out in HEPA-filtered laminar-flow hoods.
# When the tumors reached a mean volume of approximately 200 mm^3 per mouse, forty animals with established tumors and moderate body weights were randomized into 4 treatment groups (n=10 mice per group). Starting on Day 0, animals were administered by once-weekly (qw) injection with vehicle (Group 1) or twice-weekly D1D2 injection (i.e., two adjacent days each week) with CFZ-captisol at 5 mpk (Group 2) or OP-59381 at 150 mg/kg (Groups 3). Starting with the fourth dose (i.e., after three week), dosing of Group 3 animals was increased to 250 mg/kg. Group 4 was dosed once-weekly (qw) injection with or OP-59381 (Example 13) at 200 mg/kg. All of these doses were administered as intravenous (IV) injections at dose volumes of 5 mL/kg. After the IV dosing for the seventh week (i.e., after Day 42 for Groups 1-4), the tumor treatment efficacy appeared to slow or cease altogether.
# [7] = test system: HT-29 Colorectal Adenocarcinoma Xenograph Model; assay: Second efficacy study in HT-29 xenograph model (FIG. 7); format: in vivo, SCID Beige Mice
# From the text: as §1
# Example 13 was formulated as described herein to the desired concentration. Carfilzomib was provided as CFZ-captisol (at 1 mg/mL). a powder sample of Example 13 was diluted to 30 mg/ml (Group 3) or 50 mg/ml (Group 4) in 10% ETOH/saline. Vehicle and CFZ-captisol were stored at 4° C. throughout the study. […]
# [8] = Group 3, 150 mpk to 250 mpk (QW) IV
compound,measurement,setting,value
"CC(C)C[C@H](NC(=O)[C@H](CCc1ccccc1)NC(=O)CN1CCOCC1)C(=O)N[C@@H](Cc1ccccc1)C(=O)N[C@@H](CC(C)C)C(=O)[C@@]1(C)CO1 [carfilzomib, Carfilzomib]",IC50,[1],~9.2 nM
same,half-life in-vivo,[2],≤ 1 h
"4-(4-Acetoxy-3-((1-PEG2K-1H-1,2,3-triazol-4-yl)methoxy)benzyl)-4-((4S,7S,10S,13S)-10-benzyl-7-isobutyl-15-methyl-13-((R)-2-methyloxirane-2-carbonyl)-2,5,8,11-tetraoxo-4-phenethyl-3,6,9,12-tetraazahexadecyl)morpholin-4-ium mesylate [Example 36]",IC50,[1],~21.8 nM
"4-(4-Acetoxy-3-((1-PEG3K-1H-1,2,3-triazol-4-yl)methoxy)benzyl)-4-((4S,7S,10S,13S)-10-benzyl-7-isobutyl-15-methyl-13-((R)-2-methyloxirane-2-carbonyl)-2,5,8,11-tetraoxo-4-phenethyl-3,6,9,12-tetraazahexadecyl)morpholin-4-ium mesylate [Example 35]",IC50,[1],~9 nM
"4-(4-acetoxy-3-((1-(5-((2-PEG3K-ethyl)amino)-5-oxopentyl)-1H-1,2,3-triazol-4-yl)methoxy)benzyl)-4-((4S,7S,10S,13S)-10-benzyl-7-isobutyl-15-methyl-13-((R)-2-methyloxirane-2-carbonyl)-2,5,8,11-tetraoxo-4-phenethyl-3,6,9,12-tetraazahexadecyl)morpholin-4-ium mesylate [Example 37]",IC50,[1],~22.8 nM
"4-(4-Acetoxy-3-((1-(PEG20K-4-Arm)-1H-1,2,3-triazol-4-yl)methoxy)benzyl)-4-((4S,7S,10S,13S)-10-benzyl-7-isobutyl-15-methyl-13-((R)-2-methyloxirane-2-carbonyl)-2,5,8,11-tetraoxo-4-phenethyl-3,6,9,12-tetraazahexadecyl)morpholin-4-ium methanesulfonate [Example 1]",CT-L activity versus standard carfilzomib,[3],comparable
"4-((4S,7S,10S,13S)-10-Benzyl-7-isobutyl-15-methyl-13-((R)-2-methyloxirane-2-carbonyl)-2,5,8,11-tetraoxo-4-phenethyl-3,6,9,12-tetraazahexadecyl)-4-(3-((1-(PEG20K-4-Arm)-1H-1,2,3-triazol-4-yl)methoxy)-4-(pivaloyloxy)benzyl)morpholin-4-ium formate [Example 13]",AUC0-24,[4],3510 ng·h/mL
same,T1/2,[4],3.68 h
same,carfilzomib plasma concentration-time profile (FIG. 4),[4],significantly higher plasma concentrations for that lengthy duration of time
same,time carfilzomib is present in / released into the plasma post administration,[4],25 h
same,plasma concentration relative to control,[5],multiple log-fold over that of the control
same,tumor growth vs. vehicle control by Day 19,"[6]; 200 mpk Example 13, 5 mpk CFZ-captisol",significantly attenuated
same,Day 40 Tumor Vol,[6]; [8],998.5 mm^3
same,% Change compared to Vehicle,[6]; [8],−59.6%
same,Day 0 Tumor Vol,[6]; [8],95.5 mm^3
same,# of animals at day 40,[6]; [8],9
same,Day 40 Tumor Vol,"[6]; Group 4, 200 mpk (QW) IV",1443.0 mm^3
same,% Change compared to Vehicle,"[6]; Group 4, 200 mpk (QW) IV",−41.6%
same,Day 0 Tumor Vol,"[6]; Group 4, 200 mpk (QW) IV",95.9 mm^3
same,# of animals at day 40,"[6]; Group 4, 200 mpk (QW) IV",7
same,"Day-41 tumor sizes, % of control","[7]; Group 3, example 13 at 150 mg/kg IV (Table 7: QD × 2 (D1D2) × 6 weeks)",79.6%
same,"Day-41 tumor sizes, % of control","[7]; Group 4, example 13 at 250 mg/kg IV, QW × 6 weeks",61.8%
"4-(4-acetoxy-3-((1-(5-((2-PEG2K-ethyl)amino)-5-oxopentyl)-1H-1,2,3-triazol-4-yl)methoxy)benzyl)-4-((4S,7S,10S,13S)-10-benzyl-7-isobutyl-15-methyl-13-((R)-2-methyloxirane-2-carbonyl)-2,5,8,11-tetraoxo-4-phenethyl-3,6,9,12-tetraazahexadecyl)morpholin-4-ium mesylate [Example 38]",IC50,[1],~21.8 nM
